The record followed here is ChEMBL document CHEMBL2424561, “Discovery of new antitubercular agents by combining pyrazoline and benzoxazole pharmacophores: design, synthesis and insights into the binding interactions” (2013).

By MIC is commonly meant the lowest concentration that inhibits growth of the organism. High values mean weaker potency, low ones greater potency.

Structures are written as SMILES. In brackets after ≈: the same amount, converted by molar mass.

This assay relates to Mycobacterium tuberculosis. The assay is described as follows: Antitubercular activity against Mycobacterium tuberculosis H37Rv after 6 weeks. Type of assay: functional.
For `CC(=O)N1N=C(c2ccccc2Br)CC1c1ccc2oc(N)nc2c1` (stereo not given), the MIC stood at 25 µg/mL (≈ 62.6 µM).

`COc1cc(C2CC(c3ccc(Cl)cc3Cl)=NN2C(C)=O)cc2nc(N)oc12` (stereo not given) displayed an MIC of 12.5 µg/mL (≈ 29.8 µM).

The molecule `CC(=O)N1N=C(c2ccccc2)CC1c1ccc(O)c(N)c1` (stereo not given) returned an MIC of 1.25 µg/mL (≈ 4.23 µM).

As to `COc1cc(C2CC(c3ccc(Cl)cc3Cl)=NN2C(C)=O)cc2nc(S)oc12` (stereo not given), inhibition of growth (MIC) required 6.25 µg/mL (≈ 14.3 µM).

Consider `COc1cc(C2CC(c3ccc(Cl)cc3Cl)=NN2C(C)=O)cc(N)c1O` (stereo not given), for which 12.5 µg/mL (≈ 31.7 µM) was the least that counted as inhibitory (MIC).

`CC(=O)N1N=C(c2ccccc2Br)CC1c1ccc2oc(S)nc2c1` (stereo not given) yielded an MIC of 12.5 µg/mL (≈ 30 µM).

As for `CC(=O)N1N=C(c2ccccc2)CC1c1cc(Cl)c2oc(S)nc2c1` (stereo not given), it took 1.25 µg/mL (≈ 3.36 µM) to inhibit growth (MIC).

In the case of `COc1cc(C2CC(c3ccccc3)=NN2C(C)=O)cc2nc(S)oc12` (stereo not given), 6.25 µg/mL (≈ 17 µM) was the least that counted as inhibitory (MIC).

`COc1cc(C2CC(c3ccc(F)cc3)=NN2C(C)=O)cc(N)c1O` (stereo not given) gave an MIC of 12.5 µg/mL (≈ 36.4 µM).

As for `CC(=O)N1N=C(c2ccccc2)CC1c1ccc2oc(S)nc2c1` (stereo not given), the MIC came out at 25 µg/mL (≈ 74.1 µM).

`CC(=O)N1N=C(c2ccccc2Br)CC1c1cc(N)c(O)c(Cl)c1` (stereo not given) yielded an MIC of 12.5 µg/mL (≈ 30.6 µM).

For `CC(=O)N1N=C(c2ccccc2)CC1c1cc(N)c(O)c(Cl)c1` (stereo not given), the MIC amounted to 3.25 µg/mL (≈ 9.85 µM).

`COc1cc(C2CC(c3ccc(F)cc3)=NN2C(C)=O)cc2nc(N)oc12` (stereo not given) had an MIC of 6.25 µg/mL (≈ 17 µM).

With `CC(=O)N1N=C(c2ccccc2Br)CC1c1cc(Cl)c2oc(S)nc2c1` (stereo not given), the MIC came to 6.25 µg/mL (≈ 13.9 µM).

Take `CC(=O)N1N=C(c2ccccc2Br)CC1c1ccc(O)c(N)c1` (stereo not given): the lowest concentration to inhibit growth (MIC) was 0.625 µg/mL (≈ 1.67 µM).

Consider `CC(=O)N1N=C(c2ccccc2)CC1c1cc(Cl)c2oc(N)nc2c1` (stereo not given), for which the MIC amounted to 25 µg/mL (≈ 70.5 µM).

`CC(=O)N1N=C(c2ccccc2)CC1c1ccc2oc(N)nc2c1` (stereo not given) yielded an MIC of 25 µg/mL (≈ 78 µM).

`COc1cc(C2CC(c3ccccc3)=NN2C(C)=O)cc(N)c1O` (stereo not given): the MIC was found to be 25 µg/mL (≈ 76.8 µM).

On to `COc1cc(C2CC(c3ccccc3Br)=NN2C(C)=O)cc2nc(N)oc12` (stereo not given), for which the MIC was found to be 12.5 µg/mL (≈ 29.1 µM).

As for `NNC(=O)c1ccncc1` [ISONIAZID], the MIC worked out at 0.625 µg/mL (≈ 4.56 µM).

In turn, `COc1cc(C2CC(c3ccccc3Br)=NN2C(C)=O)cc(N)c1O` (stereo not given) gave a minimum inhibitory concentration (MIC) of 12.5 µg/mL (≈ 30.9 µM).

Molecule `CC(=O)N1N=C(c2ccccc2Br)CC1c1cc(Cl)c2oc(N)nc2c1` (stereo not given) yielded an MIC of 3.25 µg/mL (≈ 7.49 µM).

The molecule `COc1cc(C2CC(c3ccc(F)cc3)=NN2C(C)=O)cc2nc(S)oc12` (stereo not given) came in with a minimum inhibitory concentration (MIC) of 12.5 µg/mL (≈ 32.4 µM).

`COc1cc(C2CC(c3ccccc3)=NN2C(C)=O)cc2nc(N)oc12` (stereo not given) displayed an MIC of 0.625 µg/mL (≈ 1.78 µM).

Turning to `COc1cc(C2CC(c3ccccc3Br)=NN2C(C)=O)cc2nc(S)oc12` (stereo not given), the MIC was determined as 12.5 µg/mL (≈ 28 µM).
